From article PMC11267547, “Advancing drug discovery through assay development: a survey of tool compounds within the human solute carrier superfamily” (Frontiers in Pharmacology, 2024)

Molecular target: T1, SLC22A3 (OCT3) (Homo sapiens, UniProt O75751)
T1 construct: expressed in transfected cells; host or cells: Jump In T-REx HEK293
T1 sequence (O75751 1-556): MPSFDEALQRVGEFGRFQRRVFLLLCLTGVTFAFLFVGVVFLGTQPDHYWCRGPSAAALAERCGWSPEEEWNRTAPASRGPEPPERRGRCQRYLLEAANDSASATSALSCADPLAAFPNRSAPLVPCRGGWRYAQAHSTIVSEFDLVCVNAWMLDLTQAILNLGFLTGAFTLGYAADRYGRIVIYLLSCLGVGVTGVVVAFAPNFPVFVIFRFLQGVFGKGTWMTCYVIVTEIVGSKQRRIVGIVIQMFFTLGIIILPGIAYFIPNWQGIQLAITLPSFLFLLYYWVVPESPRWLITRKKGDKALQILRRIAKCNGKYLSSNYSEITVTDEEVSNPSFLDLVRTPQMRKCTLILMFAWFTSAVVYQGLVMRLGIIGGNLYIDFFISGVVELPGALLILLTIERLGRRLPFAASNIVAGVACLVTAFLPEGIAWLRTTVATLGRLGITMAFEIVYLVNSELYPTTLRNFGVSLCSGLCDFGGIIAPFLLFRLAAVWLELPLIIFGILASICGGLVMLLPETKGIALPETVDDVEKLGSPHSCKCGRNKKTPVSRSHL
Test: Impedance-based MPP+ transport assay, HEK293–JumpIn–OCT3 cells
Format: cell-based
Settings: phenotypic; read-out: pIC50 (act), SLC22A3 (converted)

IC50 [µM] | SMILES
> 10 | Cc1ccsc1C(=CCCN1CCC[C@@H](C(=O)O)C1)c1sccc1C [Tiagabine]
> 10 | COc1ccc(C2C(C#N)=C(N)OC3=C2C(=O)CC(c2cccc4ccccc24)C3)cc1 (stereo not shown) [UCPH-101]
> 10 | CC1C(C#N)=C(N)OC2=C1C(=O)CC(c1cccc3ccccc13)C2 (stereo not shown) [UCPH-102]
> 10 | N[C@@H](CC(=O)Nc1ccc(Oc2cc(F)c(F)cc2Br)cc1)C(=O)O [WAY-213613]

SMILES | IC50 [µM]
N[C@H](C(=O)O)[C@H](OCc1cccc(NC(=O)c2ccc(C(F)(F)F)cc2)c1)C(=O)O [TFB-TBOA] | > 10
NC(C(=O)O)C(OCc1ccccc1)C(=O)O (stereo not drawn) [Threo-beta-benzyloxyaspartic acid, Threo-beta-Benzyloxyaspartic acid] | > 10
Fc1ccc(C(OCCN2CCN(CCCc3ccccc3)CC2)c2ccc(F)cc2)cc1 [Vanoxerine (GBR12909), Vanoxerine] | > 10

Test system: 13 different SLCs (SLC1A1, SLC1A2, SLC1A3, SLC6A2, SLC6A4, SLC6A8, SLC6A9, SLC7A3, SLC9A1, SLC13A3, SLC22A3, SLC23A1, SLC6A12)
Test: Test of selected compounds against a panel of 13 SLCs in RESOLUTE assays
Format: cell-based, human
Settings: other tested SLCs of the 13-SLC panel; in words

SMILES | off-target activity / selectivity across the tested SLC panel
N[C@H](C(=O)O)[C@H](OCc1cccc(NC(=O)c2ccc(C(F)(F)F)cc2)c1)C(=O)O [TFB-TBOA] | could not identify any new off-target effects
NC(C(=O)O)C(OCc1ccccc1)C(=O)O (stereo not drawn) [Threo-beta-benzyloxyaspartic acid, Threo-beta-Benzyloxyaspartic acid] | could not identify any new off-target effects
Cc1ccsc1C(=CCCN1CCC[C@@H](C(=O)O)C1)c1sccc1C [Tiagabine] | confirm the selectivity

Molecular target: T2, SLC1A1 (Homo sapiens, UniProt P43005)
T2 sequence (P43005 1-524): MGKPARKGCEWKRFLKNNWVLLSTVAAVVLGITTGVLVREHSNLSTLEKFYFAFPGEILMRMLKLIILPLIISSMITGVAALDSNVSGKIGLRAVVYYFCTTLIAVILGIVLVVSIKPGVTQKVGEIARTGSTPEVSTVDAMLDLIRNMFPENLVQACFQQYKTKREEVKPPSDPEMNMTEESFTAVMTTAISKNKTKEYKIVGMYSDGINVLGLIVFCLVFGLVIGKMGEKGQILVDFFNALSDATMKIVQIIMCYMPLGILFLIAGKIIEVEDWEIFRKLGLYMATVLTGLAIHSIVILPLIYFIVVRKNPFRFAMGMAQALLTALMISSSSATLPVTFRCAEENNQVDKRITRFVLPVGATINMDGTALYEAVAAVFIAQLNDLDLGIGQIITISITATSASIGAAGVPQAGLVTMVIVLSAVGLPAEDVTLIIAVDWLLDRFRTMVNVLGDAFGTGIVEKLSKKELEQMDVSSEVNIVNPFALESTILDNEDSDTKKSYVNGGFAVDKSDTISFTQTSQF
Test: not given
Settings: SLC1A1, known data from the KNIME workflow; ref ChEMBL; cited from earlier work

SMILES | primary_SLC_act / SLCs_act
N[C@H](C(=O)O)[C@H](OCc1cccc(NC(=O)c2ccc(C(F)(F)F)cc2)c1)C(=O)O [TFB-TBOA] | 6.92
NC(C(=O)O)C(OCc1ccccc1)C(=O)O (stereo not drawn) [Threo-beta-benzyloxyaspartic acid, Threo-beta-Benzyloxyaspartic acid] | 5.1
N[C@@H](CC(=O)Nc1ccc(Oc2cc(F)c(F)cc2Br)cc1)C(=O)O [WAY-213613] | 5.72

Same assay, conditions: median of reported IC50, Ki, EC50, Kd values (negative log molar); ref Supplementary Table S2; cited from earlier work

SMILES | Literature median activity, SLC1A1
N[C@H](C(=O)O)[C@H](OCc1cccc(NC(=O)c2ccc(C(F)(F)F)cc2)c1)C(=O)O [TFB-TBOA] | 6.9
N[C@@H](CC(=O)Nc1ccc(Oc2cc(F)c(F)cc2Br)cc1)C(=O)O [WAY-213613] | 5.7

Molecular target: T3, SLC1A2 (Homo sapiens, UniProt P43004)
Test: not given
Settings: SLC1A2, known data from the KNIME workflow; ref ChEMBL, GtoPdb; cited from earlier work

T3 sequence (P43004 whole entry): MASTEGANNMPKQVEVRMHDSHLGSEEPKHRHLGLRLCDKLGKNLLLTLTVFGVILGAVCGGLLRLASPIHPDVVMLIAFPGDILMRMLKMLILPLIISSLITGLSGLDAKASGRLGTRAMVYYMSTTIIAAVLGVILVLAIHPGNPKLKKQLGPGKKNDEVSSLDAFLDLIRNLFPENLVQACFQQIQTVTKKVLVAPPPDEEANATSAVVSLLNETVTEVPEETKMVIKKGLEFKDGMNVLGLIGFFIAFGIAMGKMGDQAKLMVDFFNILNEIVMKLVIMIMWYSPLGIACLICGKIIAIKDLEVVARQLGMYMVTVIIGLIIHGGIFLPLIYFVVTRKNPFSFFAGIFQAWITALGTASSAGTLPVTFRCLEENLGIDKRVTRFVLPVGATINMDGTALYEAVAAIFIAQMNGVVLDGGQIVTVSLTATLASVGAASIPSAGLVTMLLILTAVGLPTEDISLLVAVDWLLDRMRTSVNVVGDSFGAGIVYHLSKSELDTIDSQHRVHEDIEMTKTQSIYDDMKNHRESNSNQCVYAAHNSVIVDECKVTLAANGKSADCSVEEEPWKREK

SMILES | primary_SLC_act / SLCs_act
N[C@H](C(=O)O)[C@H](OCc1cccc(NC(=O)c2ccc(C(F)(F)F)cc2)c1)C(=O)O [TFB-TBOA] | 7.88
NC(C(=O)O)C(OCc1ccccc1)C(=O)O (stereo not drawn) [Threo-beta-benzyloxyaspartic acid, Threo-beta-Benzyloxyaspartic acid] | 5.7
N[C@@H](CC(=O)Nc1ccc(Oc2cc(F)c(F)cc2Br)cc1)C(=O)O [WAY-213613] | 7.1

Same assay, conditions: median of reported IC50, Ki, EC50, Kd values (negative log molar); ref Supplementary Table S2; cited from earlier work

SMILES | Literature median activity, SLC1A2
N[C@H](C(=O)O)[C@H](OCc1cccc(NC(=O)c2ccc(C(F)(F)F)cc2)c1)C(=O)O [TFB-TBOA] | 7.9
NC(C(=O)O)C(OCc1ccccc1)C(=O)O (stereo not drawn) [Threo-beta-benzyloxyaspartic acid, Threo-beta-Benzyloxyaspartic acid] | 5.7

Molecular target: SLC6A2 (Homo sapiens, UniProt P23975)
Test: not given
Settings: SLC6A2, known data from the KNIME workflow; ref ChEMBL, PubChem, GtoPdb; cited from earlier work

SLC6A2, sequence (P23975 whole entry): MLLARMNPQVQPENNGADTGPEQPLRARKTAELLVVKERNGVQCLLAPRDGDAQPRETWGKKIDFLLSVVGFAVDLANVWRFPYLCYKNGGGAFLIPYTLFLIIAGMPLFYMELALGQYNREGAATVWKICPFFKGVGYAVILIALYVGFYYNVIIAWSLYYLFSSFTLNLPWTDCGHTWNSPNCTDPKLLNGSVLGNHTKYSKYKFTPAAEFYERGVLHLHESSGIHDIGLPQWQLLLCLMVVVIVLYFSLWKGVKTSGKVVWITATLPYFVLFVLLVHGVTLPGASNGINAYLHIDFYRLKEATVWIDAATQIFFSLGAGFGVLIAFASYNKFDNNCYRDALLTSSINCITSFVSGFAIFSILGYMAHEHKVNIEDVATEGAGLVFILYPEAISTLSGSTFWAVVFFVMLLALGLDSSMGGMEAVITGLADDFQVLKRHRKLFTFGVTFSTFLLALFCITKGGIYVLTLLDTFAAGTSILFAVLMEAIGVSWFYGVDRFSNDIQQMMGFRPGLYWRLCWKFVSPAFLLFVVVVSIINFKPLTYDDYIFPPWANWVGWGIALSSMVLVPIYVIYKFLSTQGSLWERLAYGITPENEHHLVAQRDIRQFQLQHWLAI

SMILES | primary_SLC_act / SLCs_act
Nc1nc2ccc(OC(F)(F)F)cc2s1 [Riluzole] | 5.76
Fc1ccc(C(OCCN2CCN(CCCc3ccccc3)CC2)c2ccc(F)cc2)cc1 [Vanoxerine (GBR12909), Vanoxerine] | 6.86

Molecular target: SLC6A4 (Homo sapiens, UniProt P31645)
Test: cell-based
Settings: not given

SLC6A4, sequence (P31645 whole entry): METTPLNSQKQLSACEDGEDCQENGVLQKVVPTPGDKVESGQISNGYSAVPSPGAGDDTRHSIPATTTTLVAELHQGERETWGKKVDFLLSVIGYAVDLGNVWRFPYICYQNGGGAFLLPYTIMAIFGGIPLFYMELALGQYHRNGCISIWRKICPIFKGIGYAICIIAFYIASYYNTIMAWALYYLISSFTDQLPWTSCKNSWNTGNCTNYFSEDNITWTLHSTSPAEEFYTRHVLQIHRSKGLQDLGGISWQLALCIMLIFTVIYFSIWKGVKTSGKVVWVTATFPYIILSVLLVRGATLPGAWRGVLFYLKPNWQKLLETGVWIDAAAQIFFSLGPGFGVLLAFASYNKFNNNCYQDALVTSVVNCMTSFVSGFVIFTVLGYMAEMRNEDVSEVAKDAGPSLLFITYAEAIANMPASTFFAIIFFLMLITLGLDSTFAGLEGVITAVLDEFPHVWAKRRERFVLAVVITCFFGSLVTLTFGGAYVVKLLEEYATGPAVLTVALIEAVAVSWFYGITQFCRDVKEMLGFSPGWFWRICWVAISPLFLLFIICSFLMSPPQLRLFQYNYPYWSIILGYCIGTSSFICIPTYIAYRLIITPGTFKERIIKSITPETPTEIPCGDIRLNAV

IC50 [µM] | SMILES | EC50 [µM]
– | Cc1c(NC(=O)c2cc(C(N)=O)nc3cc(F)ccc23)c(C(F)(F)F)nn1Cc1ccc(C#N)cc1 [BAY-876] | 0.00794
> 10 | Cc1ccsc1C(=CCCN1CCC[C@@H](C(=O)O)C1)c1sccc1C [Tiagabine] | –
> 10 | COc1ccc(C2C(C#N)=C(N)OC3=C2C(=O)CC(c2cccc4ccccc24)C3)cc1 (stereo not shown) [UCPH-101] | –
> 10 | CC1C(C#N)=C(N)OC2=C1C(=O)CC(c1cccc3ccccc13)C2 (stereo not shown) [UCPH-102] | –
> 10 | N[C@@H](CC(=O)Nc1ccc(Oc2cc(F)c(F)cc2Br)cc1)C(=O)O [WAY-213613] | –

SMILES | IC50 [µM] | EC50 [µM]
N[C@H](C(=O)O)[C@H](OCc1cccc(NC(=O)c2ccc(C(F)(F)F)cc2)c1)C(=O)O [TFB-TBOA] | > 10 | –
NC(C(=O)O)C(OCc1ccccc1)C(=O)O (stereo not drawn) [Threo-beta-benzyloxyaspartic acid, Threo-beta-Benzyloxyaspartic acid] | > 10 | –

Molecular target: T2, SLC1A1
Test: Echo-MS assay, uptake of labeled glutamic acid in dox-induced HEK293–JumpIn–SLC1A1 (EAAT3) cells
Format: cell-based
Design: expressed in transfected cells; host or cells: Jump In T-REx HEK293
Settings: dox-induced HEK293–JumpIn–SLC1A1 cells; top conc. 30 µM; read-out: pIC50, SLC1A1, EchoMS (converted)

SMILES | IC50 [µM]
Nc1nc2ccc(OC(F)(F)F)cc2s1 [Riluzole] | 7.94
N[C@H](C(=O)O)[C@H](OCc1cccc(NC(=O)c2ccc(C(F)(F)F)cc2)c1)C(=O)O [TFB-TBOA] | 0.398
N[C@@H](CC(=O)Nc1ccc(Oc2cc(F)c(F)cc2Br)cc1)C(=O)O [WAY-213613] | 3.16

Same assay, conditions: target SLC1A1, assay EchoMS; read-out: pIC50 (act) (converted)

SMILES | IC50 [µM]
Cc1c(NC(=O)c2cc(C(N)=O)nc3cc(F)ccc23)c(C(F)(F)F)nn1Cc1ccc(C#N)cc1 [BAY-876] | > 30
Nc1nc2ccc(OC(F)(F)F)cc2s1 [Riluzole] | 7.25
N[C@H](C(=O)O)[C@H](OCc1cccc(NC(=O)c2ccc(C(F)(F)F)cc2)c1)C(=O)O [TFB-TBOA] | 0.436
NC(C(=O)O)C(OCc1ccccc1)C(=O)O (stereo not drawn) [Threo-beta-benzyloxyaspartic acid, Threo-beta-Benzyloxyaspartic acid] | > 10
Cc1ccsc1C(=CCCN1CCC[C@@H](C(=O)O)C1)c1sccc1C [Tiagabine] | > 30
COc1ccc(C2C(C#N)=C(N)OC3=C2C(=O)CC(c2cccc4ccccc24)C3)cc1 (stereo not shown) [UCPH-101] | > 10
CC1C(C#N)=C(N)OC2=C1C(=O)CC(c1cccc3ccccc13)C2 (stereo not shown) [UCPH-102] | > 10
N[C@@H](CC(=O)Nc1ccc(Oc2cc(F)c(F)cc2Br)cc1)C(=O)O [WAY-213613] | 3.28

Molecular target: T3, SLC1A2
Test: Echo-MS assay, uptake of labeled glutamic acid in dox-induced HEK293–JumpIn–SLC1A2 (EAAT2) cells
Format: cell-based
Design: expressed in transfected cells; host or cells: Jump In T-REx HEK293
Settings: dox-induced HEK293–JumpIn–SLC1A2 cells; top conc. 30 µM; read-out: pIC50, SLC1A2, EchoMS (converted)
Protocol: Before the Echo-MS experiment, 15,000 cells per well were seeded into the wells of a 384-well plate (Beckman Coulter) and induced with […] doxycycline. […] The next day, compounds with stock solutions of 10 mM were first diluted to a final concentration of 90 µM before starting a 10-stage dilution series with a dilution factor of 1:3 with the CyBio FeliX pipetting robot. After the supernatant in the plate of the cell plate assay was discarded (BlueWasher, BlueCatBio), 10 µL of potassium/wash buffer including the compound dilution series was transferred by the pipetting robot (FeliX, CyBio), yielding a highest final concentration of 30 µM compound per well. After an incubation time of 15 min, 20 μL of L-Glutamic acid-13C5,15N with a concentration of 300 µM was added and incubated in an incubator at 37°C, 7.5% CO2, and 95% humidity. After 1 h incubation time, the wells were washed with 70 µL potassium buffer per well, and the supernatant was discarded before the precipitation process was started by adding 90 µL/well precipitation reagent (60% MeOH, 29% H2O, 11% formic acid) using a Multidrop Combi reagent dispenser (Thermo Fisher Scientific). After 30 min on the shaker at 500 rpm, the plates were centrifuged for 20 min at 2,000 rpm. Finally, 40 µL/well was transferred on qualified 384-well plates and then measured with Echo-MS/ADE-MS (Sciex). ADE-MS measurements were performed on an ADE-MS device (Sciex) operated with Sciex OS software (version 2.1.6.59781). A carrier solvent (60% acetonitrile, 39% H2O, and 1% formic acid) was used at a constant flow rate of 300 μL/min. For all samples, an ejection volume of 5 nL (2 droplets) and a repetition rate of 2.5 s/well were used. Triple Quad 6500+ was operated in a positive mode using the following settings: vaporizer temperature 450°C, spray voltage 5500 V, ion source gas 1: 90 psi, ion source gas 2: 70 psi, curtain gas 20 psi, CAD gas 9 psi, dwell time […], DP 35 V, EP 10 V, CE 14 V, and CXP 18 V. Data were processed with Sciex OS and further processed with Genedata Screener (version 19.0.9-Standard). Transporter inhibition by the compounds was tracked by analyzing the MS signal area values of uptaken labeled glutamic acid into the cell. The signal ratio of the reaction product to the respective standard was calculated to diminish variations ascribed to the sample preparation procedure or the MS readout. Average control values were calculated and set to 100% activity (high controls) and 0% activity (low controls), while the response values of compound-containing wells were normalized against the controls and expressed as the percentage of control (PoC).

SMILES | IC50 [µM]
N[C@H](C(=O)O)[C@H](OCc1cccc(NC(=O)c2ccc(C(F)(F)F)cc2)c1)C(=O)O [TFB-TBOA] | 0.00794
NC(C(=O)O)C(OCc1ccccc1)C(=O)O (stereo not drawn) [Threo-beta-benzyloxyaspartic acid, Threo-beta-Benzyloxyaspartic acid] | 7.94
N[C@@H](CC(=O)Nc1ccc(Oc2cc(F)c(F)cc2Br)cc1)C(=O)O [WAY-213613] | 0.251

Same assay, conditions: target SLC1A2, assay EchoMS; read-out: pIC50 (act) (converted)

SMILES | IC50 [µM]
Cc1c(NC(=O)c2cc(C(N)=O)nc3cc(F)ccc23)c(C(F)(F)F)nn1Cc1ccc(C#N)cc1 [BAY-876] | > 30
Nc1nc2ccc(OC(F)(F)F)cc2s1 [Riluzole] | > 30
N[C@H](C(=O)O)[C@H](OCc1cccc(NC(=O)c2ccc(C(F)(F)F)cc2)c1)C(=O)O [TFB-TBOA] | 0.0088
NC(C(=O)O)C(OCc1ccccc1)C(=O)O (stereo not drawn) [Threo-beta-benzyloxyaspartic acid, Threo-beta-Benzyloxyaspartic acid] | 8.6
Cc1ccsc1C(=CCCN1CCC[C@@H](C(=O)O)C1)c1sccc1C [Tiagabine] | > 30
COc1ccc(C2C(C#N)=C(N)OC3=C2C(=O)CC(c2cccc4ccccc24)C3)cc1 (stereo not shown) [UCPH-101] | > 30
CC1C(C#N)=C(N)OC2=C1C(=O)CC(c1cccc3ccccc13)C2 (stereo not shown) [UCPH-102] | > 30
Fc1ccc(C(OCCN2CCN(CCCc3ccccc3)CC2)c2ccc(F)cc2)cc1 [Vanoxerine (GBR12909), Vanoxerine] | 19.7
N[C@@H](CC(=O)Nc1ccc(Oc2cc(F)c(F)cc2Br)cc1)C(=O)O [WAY-213613] | 0.26
